pKd: −log10 of the molar value. Numbered stars: 1 amine (or outer) side, 2 acyl side, 3 side chain; on linkers, the order of the positions; unused ones are H or OH. Bridge positions count the residues as written; N and C are the ends. Square brackets hold non-standard residues; d marks the D form. Peptide text beside a SMILES is read from it. * marks the point of attachment. NMePhe(4-COOH) = CN[C@@H](Cc1ccc(C(=O)O)cc1)C(=O)O; X1 = O=C([C@H](Cc1cccc(C(=O)[*:3])c1)N[*:1])[*:2]; Nle(6-morpholino) = N[C@@H](CCCCN1CCOCC1)C(=O)O; Trp(7-aza) = N[C@@H](Cc1c[nH]c2ncccc12)C(=O)O; NMePhe(3-Cl) = CN[C@@H](Cc1cccc(Cl)c1)C(=O)O; Trp(1-Me) = Cn1cc(C[C@H](N)C(=O)O)c2ccccc21; 3Pal(6-NH2) = Nc1ccc(C[C@H](N)C(=O)O)cn1; NMeW = CN[C@@H](Cc1c[nH]c2ccccc12)C(=O)O; NMeY = CN[C@@H](Cc1ccc(O)cc1)C(=O)O; Nva(3-Et) = CCC(CC)[C@H](N)C(=O)O; NMeF = CN[C@@H](Cc1ccccc1)C(=O)O; 4Pal = N[C@@H](Cc1ccncc1)C(=O)O; PEG4 = NCCOCCOCCOCCOCCC(=O)O; Carboxymethyl = O=C(O)C*

The results in this text go back to patent EP4667483A1, “HUMAN TRANSFERRIN RECEPTOR-BINDING PEPTIDE” (JCR Pharmaceuticals Co., Ltd., priority 2023, dated 2024).

Assay [1] concerns the target T1, human transferrin receptor (hTfR) (Homo sapiens, UniProt P02786). Put plainly: SPR measurement under pH 7.4 conditions (Biacore T200, CM3 chip, hTfR captured by His Tag antibody). The format is binding. As to conditions: SPR, pH 7.4; peptide with the linker named in the table; read-out: hTfR SPR pH7.4 KD. On the technique in general: Surface plasmon resonance follows binding to a sensor surface in real time, without labels.

Assay [2] concerns the target T1, human transferrin receptor (hTfR). Briefly: SPR measurement under pH 6.0 conditions (Biacore T200, NTA chip, immobilized hTfR). It counts as binding. As to conditions: SPR, pH 6.0; peptide with the linker named in the table; read-out: hTfR SPR pH6.0 KD.

T1 sequence (P02786 whole entry): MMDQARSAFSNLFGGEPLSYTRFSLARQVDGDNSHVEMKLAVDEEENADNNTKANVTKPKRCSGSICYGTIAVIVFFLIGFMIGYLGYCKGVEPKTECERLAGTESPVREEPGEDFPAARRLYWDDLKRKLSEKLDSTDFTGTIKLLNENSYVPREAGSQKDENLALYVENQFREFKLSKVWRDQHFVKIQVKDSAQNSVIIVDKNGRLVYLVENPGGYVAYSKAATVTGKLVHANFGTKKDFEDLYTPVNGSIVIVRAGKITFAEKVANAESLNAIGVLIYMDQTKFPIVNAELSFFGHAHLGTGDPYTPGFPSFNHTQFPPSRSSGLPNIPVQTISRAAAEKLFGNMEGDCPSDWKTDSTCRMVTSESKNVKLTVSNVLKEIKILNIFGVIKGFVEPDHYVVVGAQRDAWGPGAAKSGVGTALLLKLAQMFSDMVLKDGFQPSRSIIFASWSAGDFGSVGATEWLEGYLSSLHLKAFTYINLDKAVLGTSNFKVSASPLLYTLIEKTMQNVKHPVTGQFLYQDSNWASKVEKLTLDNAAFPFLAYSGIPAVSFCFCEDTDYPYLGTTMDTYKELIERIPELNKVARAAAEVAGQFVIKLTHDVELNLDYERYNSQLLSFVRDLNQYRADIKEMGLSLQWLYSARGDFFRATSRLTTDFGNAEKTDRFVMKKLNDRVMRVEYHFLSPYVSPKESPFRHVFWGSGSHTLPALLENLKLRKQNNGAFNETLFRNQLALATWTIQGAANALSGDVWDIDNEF

For orientation: pKd means the negative decadic logarithm of the Kd, by convention in mol/L. As for `CCC(CC)[C@@H]1NC(=O)[C@H](Cc2ccc(OC)cc2)NC(=O)[C@H](Cc2ccc(O)cc2)NC(=O)[C@H](CC(N)=O)NC(=O)[C@H](Cc2c[nH]c3ccccc23)NC(=O)[C@H](C(C)C)NC(=O)[C@H](Cc2cccc(Cl)c2)N(C)C(=O)[C@H](C(C)C)NC(=O)[C@H](C)NC(=O)CSC[C@@H](C(=O)NCCOCCOCCOCCOCCC(N)=O)NC(=O)[C@H](Cc2ccc(C(=O)O)cc2)N(C)C(=O)[C@H](Cc2cccc(C(=O)NCCOCCOCCOCCOCCC(=O)O)c2)NC(=O)[C@H](CCCNC(=N)N)NC(=O)[C@H](CCC(N)=O)NC(=O)[C@H]([C@@H](C)CC)NC1=O` [compound 111] ({CH2CO}-AV[NMePhe(3-Cl)]VWNYY(Me)[Nva(3-Et)]IQR[X1](PEG4)[NMePhe(4-COOH)]C[PEG4]-NH2; thioether N-15), the pKd is 8.69 in assay [1] and 8.46 in assay [2].

With `CCC(CC)[C@@H]1NC(=O)[C@H](Cc2ccc(OCC(=O)O)cc2)NC(=O)[C@H](Cc2ccc(O)cc2)NC(=O)[C@H](CC(N)=O)NC(=O)[C@H](Cc2c[nH]c3ccccc23)NC(=O)[C@H](C(C)C)NC(=O)[C@H](Cc2cccc(Cl)c2)N(C)C(=O)[C@H](C(C)C)NC(=O)[C@H](C)NC(=O)CSC[C@@H](C(=O)NCCOCCOCCOCCOCCC(N)=O)NC(=O)[C@H](Cc2ccc(O)cc2)N(C)C(=O)[C@H](Cc2cccc(C(=O)NCCOCCOCCOCCOCCC(=O)O)c2)NC(=O)[C@H](CCCNC(=N)N)NC(=O)[C@H](CCC(N)=O)NC(=O)[C@H]([C@@H](C)CC)NC1=O` [compound 112] ({CH2CO}-AV[NMePhe(3-Cl)]VWNYY(Carboxymethyl)[Nva(3-Et)]IQR[X1](PEG4)[NMeY]C[PEG4]-NH2; thioether N-15), the pKd in assay [1] is 8.45; in assay [2], 7.94.

As to `CCC(CC)[C@@H]1NC(=O)[C@H](Cc2ccc(OC)cc2)NC(=O)[C@H](Cc2ccc(O)cc2)NC(=O)[C@H](CC(N)=O)NC(=O)[C@H](Cc2c[nH]c3ncccc23)NC(=O)[C@H](C(C)C)NC(=O)[C@H](Cc2cccc(Cl)c2)N(C)C(=O)[C@H](C(C)C)NC(=O)[C@H](C)NC(=O)CSC[C@@H](C(=O)NCCOCCOCCOCCOCCC(N)=O)NC(=O)[C@H](Cc2ccc(C(=O)O)cc2)N(C)C(=O)[C@H](Cc2ccncc2)NC(=O)[C@H](CCCNC(=N)N)NC(=O)[C@H](CCCCN2CCOCC2)NC(=O)[C@H]([C@@H](C)CC)NC1=O` [compound 114] ({CH2CO}-AV[NMePhe(3-Cl)]V[Trp(7-aza)]NYY(Me)[Nva(3-Et)]I[Nle(6-morpholino)]R[4Pal][NMePhe(4-COOH)]C[PEG4]-NH2; thioether N-15), the pKd in assay [1] was 8.88; in assay [2] it was 7.97.

For the compound `CC[C@H](C)[C@@H]1NC(=O)[C@H](Cc2ccc(OC)cc2)NC(=O)[C@H](Cc2ccc(N)nc2)NC(=O)[C@H](CC(N)=O)NC(=O)[C@H](Cc2c[nH]c3ccccc23)NC(=O)[C@H](C(C)C)NC(=O)[C@H](Cc2cccc(Cl)c2)N(C)C(=O)[C@H](C(C)C)NC(=O)[C@H](C)NC(=O)CSC[C@@H](C(=O)NCCOCCOCCOCCOCCC(N)=O)NC(=O)[C@H](Cc2ccc(C(=O)O)cc2)N(C)C(=O)[C@H](Cc2cccc(C(=O)NCCOCCOCCOCCOCCC(=O)O)c2)NC(=O)[C@H](CCCNC(=N)N)NC(=O)[C@H](CCC(N)=O)NC(=O)[C@H]([C@@H](C)CC)NC1=O` [compound 115] ({CH2CO}-AV[NMePhe(3-Cl)]VWN[3Pal(6-NH2)]Y(Me)IIQR[X1](PEG4)[NMePhe(4-COOH)]C[PEG4]-NH2; thioether N-15), the pKd in assay [1] is 8.74; in assay [2], 7.90.

On to `CC[C@H](C)[C@@H]1NC(=O)[C@H](Cc2ccc(OCC(=O)O)cc2)NC(=O)[C@H](Cc2ccc(N)nc2)NC(=O)[C@H](CC(N)=O)NC(=O)[C@H](Cc2c[nH]c3ccccc23)NC(=O)[C@H](C(C)C)NC(=O)[C@H](Cc2cccc(Cl)c2)N(C)C(=O)[C@H](C(C)C)NC(=O)[C@H](C)NC(=O)CSC[C@@H](C(=O)NCCOCCOCCOCCOCCC(N)=O)NC(=O)[C@H](Cc2ccc(C(=O)O)cc2)N(C)C(=O)[C@H](Cc2cccc(C(=O)NCCOCCOCCOCCOCCC(=O)O)c2)NC(=O)[C@H](CCCNC(=N)N)NC(=O)[C@H](CCC(N)=O)NC(=O)[C@H]([C@@H](C)CC)NC1=O` [compound 116] ({CH2CO}-AV[NMePhe(3-Cl)]VWN[3Pal(6-NH2)]Y(Carboxymethyl)IIQR[X1](PEG4)[NMePhe(4-COOH)]C[PEG4]-NH2; thioether N-15), for which the pKd is 8.07 in assay [1] and 7.45 in assay [2].

Regarding `CCC(CC)[C@@H]1NC(=O)[C@H](Cc2ccc(O)cc2)NC(=O)[C@H](Cc2ccc(O)cc2)NC(=O)[C@H](CC(N)=O)NC(=O)[C@H](Cc2c[nH]c3ccccc23)N(C)C(=O)[C@H](C(C)C)NC(=O)[C@H](Cc2ccccc2)N(C)C(=O)[C@H](C(C)C)NC(=O)[C@H](C)NC(=O)CSC[C@@H](C(=O)NCCOCCOCCOCCOCCC(N)=O)NC(=O)[C@H](Cc2ccc(O)cc2)N(C)C(=O)[C@H](Cc2cccc(C(=O)NCCOCCOCCOCCOCCC(=O)O)c2)NC(=O)[C@H](CCCNC(=N)N)NC(=O)[C@H](CCCCN)NC(=O)[C@H]([C@@H](C)CC)NC1=O` [compound 120] ({CH2CO}-AV[NMeF]V[NMeW]NYY[Nva(3-Et)]IKR[X1](PEG4)[NMeY]C[PEG4]-NH2; thioether N-15), the pKd in assay [1] is 8.24; in assay [2], 7.88.

As for `CCC(CC)[C@@H]1NC(=O)[C@H](Cc2ccc(O)cc2)NC(=O)[C@H](Cc2ccc(O)cc2)NC(=O)[C@H](CC(N)=O)NC(=O)[C@H](Cc2c[nH]c3ccccc23)N(C)C(=O)[C@H](C(C)C)NC(=O)[C@H](Cc2ccccc2)N(C)C(=O)[C@H](C(C)C)NC(=O)[C@H](C)NC(=O)CSC[C@@H](C(=O)NCCOCCOCCOCCOCCC(N)=O)NC(=O)[C@H](Cc2ccc(C(=O)O)cc2)N(C)C(=O)[C@H](Cc2cccc(C(=O)NCCOCCOCCOCCOCCC(=O)O)c2)NC(=O)[C@H](CCCNC(=N)N)NC(=O)[C@H](CCCCN)NC(=O)[C@H]([C@@H](C)CC)NC1=O` [compound 122] ({CH2CO}-AV[NMeF]V[NMeW]NYY[Nva(3-Et)]IKR[X1](PEG4)[NMePhe(4-COOH)]C[PEG4]-NH2; thioether N-15), the results for the pKd in assay [1] and in assay [2] were 8.28 and 7.82, respectively.

As for `CCC(CC)[C@@H]1NC(=O)[C@H](Cc2ccc(O)cc2)NC(=O)[C@H](Cc2ccc(O)cc2)NC(=O)[C@H](CC(N)=O)NC(=O)[C@H](Cc2cn(C)c3ccccc23)NC(=O)[C@H](C(C)C)NC(=O)[C@H](Cc2cccc(Cl)c2)N(C)C(=O)[C@H](C(C)C)NC(=O)[C@H](C)NC(=O)CSC[C@@H](C(=O)NCCOCCOCCOCCOCCC(N)=O)NC(=O)[C@H](Cc2ccc(O)cc2)N(C)C(=O)[C@H](Cc2ccncc2)NC(=O)[C@H](CCCNC(=N)N)NC(=O)[C@H](CCCCN)NC(=O)[C@H]([C@@H](C)CC)NC1=O` [compound 127] ({CH2CO}-AV[NMePhe(3-Cl)]V[Trp(1-Me)]NYY[Nva(3-Et)]IKR[4Pal][NMeY]C[PEG4]-NH2; thioether N-15), the pKd was 8.80 in assay [1] and 8.28 in assay [2].

`CCC(CC)[C@@H]1NC(=O)[C@H](Cc2ccc(OC)cc2)NC(=O)[C@H](Cc2ccc(O)cc2)NC(=O)[C@H](CC(N)=O)NC(=O)[C@H](Cc2cn(C)c3ccccc23)NC(=O)[C@H](C(C)C)NC(=O)[C@H](Cc2cccc(Cl)c2)N(C)C(=O)[C@H](C(C)C)NC(=O)[C@H](C)NC(=O)CSC[C@@H](C(=O)NCCOCCOCCOCCOCCC(N)=O)NC(=O)[C@H](Cc2ccc(O)cc2)N(C)C(=O)[C@H](Cc2ccncc2)NC(=O)[C@H](CCCNC(=N)N)NC(=O)[C@H](CCCCN)NC(=O)[C@H]([C@@H](C)CC)NC1=O` [compound 128] ({CH2CO}-AV[NMePhe(3-Cl)]V[Trp(1-Me)]NYY(Me)[Nva(3-Et)]IKR[4Pal][NMeY]C[PEG4]-NH2; thioether N-15): the pKd in assay [1] is 8.96; in assay [2], 8.49.

Consider `CC[C@H](C)[C@@H]1NC(=O)[C@H](Cc2ccc(OC)cc2)NC(=O)[C@H](Cc2ccc(O)cc2)NC(=O)[C@H](CC(N)=O)NC(=O)[C@H](Cc2cn(C)c3ccccc23)NC(=O)[C@H](C(C)C)NC(=O)[C@H](Cc2cccc(Cl)c2)N(C)C(=O)[C@H](C(C)C)NC(=O)[C@H](C)NC(=O)CSC[C@@H](C(=O)NCCOCCOCCOCCOCCC(N)=O)NC(=O)[C@H](Cc2ccc(O)cc2)N(C)C(=O)[C@H](Cc2ccncc2)NC(=O)[C@H](CCCNC(=N)N)NC(=O)[C@H](CCCCN)NC(=O)[C@H]([C@@H](C)CC)NC1=O` [compound 130], for which the pKd in assay [1] was 9.17; in assay [2], 8.76.

For `CCC(CC)[C@@H]1NC(=O)[C@H](Cc2ccc(O)cc2)NC(=O)[C@H](Cc2ccc(N)nc2)NC(=O)[C@H](CC(N)=O)NC(=O)[C@H](Cc2c[nH]c3ccccc23)N(C)C(=O)[C@H](C(C)C)NC(=O)[C@H](Cc2ccccc2)N(C)C(=O)[C@H](C(C)C)NC(=O)[C@H](C)NC(=O)CSC[C@@H](C(=O)NCCOCCOCCOCCOCCC(N)=O)NC(=O)[C@H](Cc2ccc(O)cc2)N(C)C(=O)[C@H](Cc2ccc(O)cc2)NC(=O)[C@H](CCCNC(=N)N)NC(=O)[C@H](CCCCN)NC(=O)[C@H]([C@@H](C)CC)NC1=O` [compound 133] ({CH2CO}-AV[NMeF]V[NMeW]N[3Pal(6-NH2)]Y[Nva(3-Et)]IKRY[NMeY]C[PEG4]-NH2; thioether N-15), the values for the pKd in assay [1] and in assay [2] were 7.78 and 7.69, respectively.

For `CCC(CC)[C@@H]1NC(=O)[C@H](Cc2ccc(O)cc2)NC(=O)[C@H](Cc2ccc(N)nc2)NC(=O)[C@H](CC(N)=O)NC(=O)[C@H](Cc2c[nH]c3ccccc23)N(C)C(=O)[C@H](C(C)C)NC(=O)[C@H](Cc2cccc(Cl)c2)N(C)C(=O)[C@H](C(C)C)NC(=O)[C@H](C)NC(=O)CSC[C@@H](C(=O)NCCOCCOCCOCCOCCC(N)=O)NC(=O)[C@H](Cc2ccc(O)cc2)N(C)C(=O)[C@H](Cc2ccc(O)cc2)NC(=O)[C@H](CCCNC(=N)N)NC(=O)[C@H](CCCCN)NC(=O)[C@H]([C@@H](C)CC)NC1=O` [compound 134] ({CH2CO}-AV[NMePhe(3-Cl)]V[NMeW]N[3Pal(6-NH2)]Y[Nva(3-Et)]IKRY[NMeY]C[PEG4]-NH2; thioether N-15), the negative-log Kd (pKd) in assay [1] was 8.34; in assay [2], 8.40.
